Patent publication US12522588B2, “Herbicidal compounds” (SYNGENTA CROP PROTECTION AG, priority 2020, dated 2026)

Assays:
Assay type in all cases: in vivo
[1] = system: Abutilon theophrasti (ABUTH); assay: Post-emergence test, glasshouse; conditions: 250 g/ha
Method: (§1) Seeds of a variety of test species are sown in standard soil in pots Amaranthus retoflexus (AMARE), Abutilon theophrasti (ABUTH), Setaria faberi (SETFA), Echinochloa crus-galli (ECHCG), Ipomoea hederacea (IPOHE)). After cultivation for one day (pre-emergence) or after 8 days cultivation (post-emergence) under controlled conditions in a glasshouse (at 24/16° C., day/night; 14 hours light; 65% humidity), the plants are sprayed with an aqueous spray solution derived from the formulation of the technical active ingredient in acetone/water (50:50) solution containing 0.5% Tween 20 (polyoxyethelyene sorbitan monolaurate, CAS RN 9005-64-5). Compounds are applied at 250 g/ha unless otherwise stated. The test plants are then grown in a glasshouse under controlled conditions in a glasshouse (at 24/16° C., day/night; 14 hours light; 65% humidity) and watered twice daily. After 13 days for pre and post-emergence, the test is evaluated for the percentage damage caused to the plant. The biological activities are shown in the following table on a five-point scale (5=81-100%; 4=61-80%; 3=41-60%; 2=21-40%; 1=0-20%).

[2] = system: Amaranthus retoflexus (AMARE); assay: Post-emergence test, glasshouse; conditions: 250 g/ha
Method: as §1

[3] = system: Echinochloa crus-galli (ECHCG); assay: Post-emergence test, glasshouse; conditions: 250 g/ha
Method: as §1

Setaria faberi (SETFA) [4] = assay: Post-emergence test, glasshouse; conditions: 250 g/ha
Method: as §1

[5] = system: Abutilon theophrasti (ABUTH); assay: Pre-emergence test, glasshouse; conditions: 250 g/ha; for percentage damage caused to the plant, ABUTH: evaluated after 13 days, Table B2; for percentage damage caused to the plant, LABUTH: comparative test
Method: as §1

[6] = system: Amaranthus retoflexus (AMARE); assay: Pre-emergence test, glasshouse; conditions: 250 g/ha
Method: as §1

[7] = system: Echinochloa crus-galli (ECHCG); assay: Pre-emergence test, glasshouse; conditions: 250 g/ha
Method: as §1

[8] = system: Ipomoea hederacea (IPOHE); assay: Pre-emergence test, glasshouse; conditions: 250 g/ha
Method: as §1

Setaria faberi (SETFA) [9] = assay: Pre-emergence test, glasshouse; conditions: 250 g/ha
Method: as §1

[10] = system: Ipomoea hederacea (IPOHE); assay: Post-emergence test, glasshouse; conditions: 250 g/ha
Method: as §1

[11] = evaluated after 13 days, Table B1
[12] = evaluated after 13 days, Table B2

Row | Compound | percentage damage caused to the plant, ABUTH [1, 11] | percentage damage caused to the plant, ABUTH ([1]; comparative test) | percentage damage caused to the plant, AMARE [2, 11] | percentage damage caused to the plant, AMARE ([2]; comparative test) | percentage damage caused to the plant, ECHCG [3, 11] | percentage damage caused to the plant, ECHCG ([3]; comparative test) | percentage damage caused to the plant, SETFA (Setaria faberi (SETFA) [4]; [11]) | percentage damage caused to the plant, SETFA (Setaria faberi (SETFA) [4]; comparative test) | percentage damage caused to the plant, ABUTH [5] | percentage damage caused to the plant, LABUTH [5] | percentage damage caused to the plant, AMARE [6, 12] | percentage damage caused to the plant, AMARE ([6]; comparative test) | percentage damage caused to the plant, ECHCG [7, 12] | percentage damage caused to the plant, ECHCG ([7]; comparative test) | percentage damage caused to the plant, IPOHE [8, 12] | percentage damage caused to the plant, IPOHE ([8]; comparative test) | percentage damage caused to the plant, SETFA (Setaria faberi (SETFA) [9]; [12]) | percentage damage caused to the plant, SETFA (Setaria faberi (SETFA) [9]; comparative test) | percentage damage caused to the plant, IPOHE [10, 11] | percentage damage caused to the plant, IPOHE ([10]; comparative test)
1 | FC(F)(F)c1ccc(-n2nc(C(F)(F)F)cc2Oc2ncc(Cl)cn2)cc1 [Compound 1.001, 5-chloro-2-[5-(trifluoromethyl)-2-[4-(trifluoromethyl)phenyl]pyrazol-3-yl]oxy-pyrimidine] | 5 (5=81-100%) | 5 (5=81-100%) | 5 (5=81-100%) | 5 (5=81-100%) | 5 (5=81-100%) | 5 (5=81-100%) | 5 (5=81-100%) | 5 (5=81-100%) | 4 (4=61-80%) | 4 (4=61-80%) | 5 (5=81-100%) | 5 (5=81-100%) | 5 (5=81-100%) | 5 (5=81-100%) | 5 (5=81-100%) | 5 (5=81-100%) | 5 (5=81-100%) | 5 (5=81-100%) |  | 
2 | FC(F)(F)c1cc(Oc2ncc(Cl)cn2)n(-c2ccc(Cl)cc2)n1 [Compound 1.002] | 3 (3=41-60%) | 3 (3=41-60%) | 5 (5=81-100%) | 5 (5=81-100%) | 5 (5=81-100%) | 5 (5=81-100%) | 5 (5=81-100%) | 5 (5=81-100%) | 2 (2=21-40%) | 2 (2=21-40%) | 5 (5=81-100%) | 5 (5=81-100%) | 5 (5=81-100%) | 5 (5=81-100%) | 1 (1=0-20%) | 1 (1=0-20%) | 5 (5=81-100%) | 5 (5=81-100%) | 4 (4=61-80%) | 4 (4=61-80%)
3 | FC(F)(F)c1cccc(-n2nc(C(F)(F)F)cc2Oc2ncc(Cl)cn2)c1 [Compound 1.003] | 1 (1=0-20%) |  | 5 (5=81-100%) |  | 1 (1=0-20%) |  | 3 (3=41-60%) |  | 1 (1=0-20%) |  | 5 (5=81-100%) |  | 2 (2=21-40%) |  | 1 (1=0-20%) |  | 5 (5=81-100%) |  | 2 (2=21-40%) | 
4 | FC(F)(F)c1cc(Oc2ncc(Cl)cn2)n(-c2cccc(Cl)c2)n1 [Compound 1.004] | 1 (1=0-20%) |  | 5 (5=81-100%) |  | 3 (3=41-60%) |  | 3 (3=41-60%) |  | 1 (1=0-20%) |  | 5 (5=81-100%) |  | 2 (2=21-40%) |  | 1 (1=0-20%) |  | 3 (3=41-60%) |  | 4 (4=61-80%) | 
5 | FC(F)c1cc(Oc2ncc(Cl)cn2)n(-c2ccc(C(F)(F)F)cc2)n1 [Compound 1.005] | 3 (3=41-60%) |  | 5 (5=81-100%) |  | 1 (1=0-20%) |  | 2 (2=21-40%) |  | 1 (1=0-20%) |  | 4 (4=61-80%) |  | 1 (1=0-20%) |  | 1 (1=0-20%) |  | 2 (2=21-40%) |  | 2 (2=21-40%) | 
6 | Cc1ccc(-n2nc(C(F)(F)F)cc2Oc2ncc(Cl)cn2)nn1 [Compound 1.012] | 1 (1=0-20%) |  | 2 (2=21-40%) |  | 1 (1=0-20%) |  | 1 (1=0-20%) |  | 1 (1=0-20%) |  | 3 (3=41-60%) |  | 1 (1=0-20%) |  | 1 (1=0-20%) |  | 1 (1=0-20%) |  | 1 (1=0-20%) | 
7 | Cc1cc(Oc2ncc(Cl)cn2)n(-c2ccc(C(F)(F)F)cc2)n1 [Compound C1, reference compound] |  | 2 (2=21-40%) |  | 4 (4=61-80%) |  | 1 (1=0-20%) |  | 2 (2=21-40%) |  | 1 (1=0-20%) |  |  |  | 1 (1=0-20%) |  | 1 (1=0-20%) |  | 2 (2=21-40%) |  | 1 (1=0-20%)
8 | Cc1cc(Oc2ncc(Cl)cn2)n(-c2ccc(Cl)cc2)n1 [Compound C2, reference compound] |  | 1 (1=0-20%) |  | 3 (3=41-60%) |  | 2 (2=21-40%) |  | 2 (2=21-40%) |  | 1 (1=0-20%) |  | 1 (1=0-20%) |  | 1 (1=0-20%) |  | 1 (1=0-20%) |  | 1 (1=0-20%) |  | 1 (1=0-20%)
